From the supplement of paper PMC10331698
± gives the standard deviation of the averaged measurements.

Experiments:
Assay in all cases: level (log10 ratio to DMSO vehicle control); higher = higher biomarker level / cell amount than vehicle control
Conditions in all cases: in DMSO
[1] = compound: FC(F)(F)C(F)(F)C(F)(F)C(F)(F)C(F)(F)C(F)(F)C(F)(F)I [1-Iodopentadecafluoroheptane]
Experimental: (§1)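 BioMAP Diversity Plus panel of 12 human primary cell co-culture systems (3C, 4H, LPS, SAg, BT, BF4T, BE3C, CASM3C, HDF3CGF, KF3CT, MyoF, Mphg). Compounds were added 1 h before stimulation and left for 24 h (MyoF 48 h; BT 72 h for soluble read-outs or 6 d for IgG). Biomarkers were read by ELISA, cytotoxicity by SRB, PBMC viability and proliferation by Alamar Blue. Each well value was divided by the mean of 8 DMSO control wells on the same plate and log10 transformed; duplicate blinded samples were tested at 4 concentrations.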

[2] = compound: O=S(=O)(Cl)C(F)(F)C(F)(F)C(F)(F)C(F)(F)C(F)(F)C(F)(F)C(F)(F)C(F)(F)F [Perfluoro-1-octanesulfonyl chloride]
Experimental: as §1

[3] = compound: O=S(=O)(O)C(F)(F)C(F)(F)C(F)(F)C(F)(F)C(F)(F)C(F)(F)C(F)(F)C(F)(F)C(F)(F)C(F)(F)F [Sodium perfluorodecanesulfonate]
Experimental: as §1

[4] = compound: FC(F)(F)C(F)(F)C(F)(F)CC1CO1 [1H,1H-Heptafluorobutyl epoxide]
Experimental: as §1

[5] = compound: O=S(=O)(F)C(F)(F)C(F)(F)C(F)(F)C(F)(F)C(F)(F)C(F)(F)C(F)(F)C(F)(F)F [Perfluorooctanesulfonyl fluoride]
Experimental: as §1

Row | Test System | level (log10) ([1]; 6700 nM) | level (log10) ([1]; 20000 nM) | level (log10) ([2]; 6700 nM) | level (log10) ([2]; 20000 nM) | level (log10) ([2]; 60000 nM) | level (log10) ([3]; 1500 nM) | level (log10) ([3]; 4400 nM) | level (log10) ([3]; 13000 nM) | level (log10) ([3]; 40000 nM) | level (log10) ([4]; 6700 nM) | level (log10) ([4]; 20000 nM) | level (log10) ([4]; 60000 nM) | level (log10) ([5]; 6700 nM) | level (log10) ([5]; 20000 nM) | level (log10) ([5]; 60000 nM)
1 | HDF3CGF:CCL2/MCP-1 | -0.0205 ± 0.025 | -0.0335 ± 0.0035 | -0.026 ± 0.038 | -0.0505 ± 0.021 | -0.0235 ± 0.028 | -0.0105 ± 0.05 | -0.018 ± 0.035 | 0.0415 ± 0.025 | 0.112 ± 0.0099 | -0.0325 ± 0.032 | -0.034 ± 0.02 | -0.02 ± 0.0099 | -0.0035 ± 0.028 | 0.007 ± 0.023 | -0.007 ± 0.072
2 | HDF3CGF:CXCL8/IL-8 | -0.0055 ± 0.00071 | -0.001 | -0.008 ± 0.0014 | 0.0065 ± 0.0092 | 0.0265 ± 0.012 | -0.0055 ± 0.0035 | -0.0095 ± 0.005 | 0.0165 ± 0.016 | 0.023 ± 0.0028 | -0.0075 ± 0.022 | -0.0115 ± 0.0078 | 0.0005 ± 0.0078 | -0.002 ± 0.0028 | -0.0015 ± 0.00071 | 0.0085 ± 0.0021
3 | HDF3CGF:CXCL9/MIG | -0.016 ± 0.0042 | 0.0015 ± 0.0064 | -0.0115 ± 0.019 | -0.0165 ± 0.018 | -0.0005 ± 0.026 | -0.0085 ± 0.022 | -0.0565 ± 0.00071 | 0.029 ± 0.0085 | 0.049 ± 0.014 | -0.03 ± 0.031 | -0.03 ± 0.068 | -0.062 ± 0.05 | -0.01 ± 0.0028 | 0.0125 ± 0.0092 | -0.02 ± 0.017
4 | HDF3CGF:Collagen I | 0.017 ± 0.033 | -0.005 ± 0.017 | 0.001 ± 0.0057 | -0.01 ± 0.0071 | 0.0135 ± 0.066 | -0.0095 ± 0.012 | -0.01 | 0.067 ± 0.011 | 0.0845 ± 0.042 | -0.0105 ± 0.029 | 0.0175 ± 0.023 | -0.013 ± 0.028 | -0.0055 ± 0.057 | 0.015 ± 0.014 | 0.041 ± 0.027
5 | HDF3CGF:Collagen III | -0.024 ± 0.014 | -0.023 ± 0.028 | 0.0055 ± 0.021 | 0.0365 ± 0.015 | -0.008 ± 0.062 | -0.031 ± 0.042 | -0.074 ± 0.025 | 0.054 ± 0.0014 | 0.0205 ± 0.052 | -0.0355 ± 0.1 | -0.0515 ± 0.1 | -0.0555 ± 0.1 | 0.055 ± 0.016 | 0.039 ± 0.025 | -0.03 ± 0.055
6 | HDF3CGF:EGFR | 0.011 ± 0.02 | 0.0135 ± 0.042 | -0.082 ± 0.045 | -0.0785 ± 0.015 | 0.031 ± 0.035 | -0.009 ± 0.067 | -0.0295 ± 0.0092 | -0.001 ± 0.0014 | 0.079 ± 0.0099 | -0.004 ± 0.014 | -0.004 ± 0.0028 | 0.023 ± 0.047 | -0.0255 ± 0.067 | -0.089 ± 0.17 | -0.0715 ± 0.19
7 | HDF3CGF:M-CSF | -0.0165 ± 0.018 | -0.0165 ± 0.0064 | -0.0065 ± 0.016 | 0.0245 ± 0.021 | 0.0195 ± 0.011 | 0.0325 ± 0.0078 | 0.009 ± 0.018 | 0.037 ± 0.035 | 0.0405 ± 0.0035 | -0.017 ± 0.064 | -0.029 ± 0.044 | -0.0245 ± 0.0092 | 0.0175 ± 0.005 | 0.0015 ± 0.0078 | -0.013 ± 0.058
8 | HDF3CGF:Proliferation 72hr | -0.0275 ± 0.005 | -0.135 ± 0.02 | 0.126 ± 0.04 | 0.155 ± 0.1 | -0.0105 ± 0.0035 | 0.098 ± 0.023 | 0.23 ± 0.037 | 0.316 ± 0.013 | 0.301 ± 0.021 | -0.0905 ± 0.044 | -0.0925 ± 0.047 | -0.0225 ± 0.13 | -0.0015 ± 0.057 | 0.0385 ± 0.013 | 0.03 ± 0.037
9 | HDF3CGF:TIMP-1 | -0.0185 ± 0.0021 | -0.024 ± 0.0042 | 0.016 ± 0.038 | 0.053 ± 0.0057 | 0.139 ± 0.016 | -0.0355 ± 0.04 | 0.0065 ± 0.0035 | 0.0265 ± 0.042 | 0.156 ± 0.016 | -0.0015 ± 0.067 | 0.015 ± 0.068 | -0.0025 ± 0.071 | -0.0065 ± 0.00071 | 0.002 ± 0.0042 | -0.007 ± 0.0085
10 | HDF3CGF:TIMP-2 | 0.015 ± 0.0057 | 0.0035 ± 0.0035 | -0.002 ± 0.048 | -0.0185 ± 0.013 | -0.0205 ± 0.0021 | -0.026 ± 0.11 | 0.0395 ± 0.0035 | 0.005 ± 0.052 | -0.085 ± 0.089 | -0.0395 ± 0.16 | -0.061 ± 0.11 | -0.038 ± 0.1 | -0.0005 ± 0.011 | 0.0185 ± 0.012 | -0.0085 ± 0.042
11 | KF3CT:CCL2/MCP-1 | 0.0065 ± 0.0092 | 0.0015 ± 0.016 | -0.031 ± 0.025 | -0.0315 ± 0.019 | -0.0485 ± 0.016 | 0.037 ± 0.0099 | -0.0155 ± 0.042 | -0.0485 ± 0.029 | -0.023 ± 0.038 | -0.031 ± 0.04 | -0.0685 ± 0.023 | -0.026 ± 0.042 | -0.0055 ± 0.0035 | -0.0305 ± 0.033 | 0.001 ± 0.052
12 | KF3CT:CD54/ICAM-1 | -0.015 ± 0.0085 | -0.018 ± 0.021 | -0.0055 ± 0.0021 | -0.008 ± 0.0028 | 0.0325 ± 0.016 | 0.0035 ± 0.013 | 0.018 ± 0.023 | 0.08 ± 0.013 | 0.09 | 0.003 ± 0.013 | -0.012 ± 0.0042 | -0.0105 ± 0.025 | 0.0055 ± 0.029 | 0.003 ± 0.0028 | 0.009 ± 0.0028
13 | KF3CT:CXCL9/MIG | 0.0115 ± 0.022 | 0.012 ± 0.014 | -0.0045 ± 0.005 | -0.002 ± 0.0057 | 0.005 ± 0.0042 | 0.0005 ± 0.0064 | -0.0045 ± 0.0021 | 0.0015 ± 0.0092 | 0 ± 0.0042 | -0.0095 ± 0.00071 | -0.002 ± 0.025 | -0.0085 ± 0.012 | 0.007 ± 0.0057 | -0.007 ± 0.0085 | 0.006 ± 0.0085
14 | KF3CT:CXCL10/IP-10 | -0.005 ± 0.014 | -0.0085 ± 0.00071 | -0.0165 ± 0.00071 | -0.0455 ± 0.00071 | -0.16 ± 0.0099 | 0 ± 0.023 | -0.021 ± 0.027 | -0.015 ± 0.025 | -0.0225 ± 0.0078 | -0.011 ± 0.027 | -0.012 ± 0.021 | -0.0175 ± 0.016 | -0.0015 ± 0.0035 | -0.0105 ± 0.00071 | -0.011 ± 0.014
15 | KF3CT:IL-1alpha | -0.006 ± 0.0042 | -0.004 ± 0.0071 | -0.013 ± 0.0085 | -0.03 ± 0.02 | -0.055 ± 0.0014 | 0.0125 ± 0.018 | -0.0295 ± 0.005 | -0.0545 ± 0.0035 | -0.045 ± 0.02 | -0.009 ± 0.011 | -0.0255 ± 0.015 | 0.0095 ± 0.037 | -0.0055 ± 0.026 | 0.007 ± 0.013 | -0.0145 ± 0.026
16 | KF3CT:MMP-9 | -0.05 ± 0.11 | -0.0495 ± 0.056 | -0.0225 ± 0.028 | -0.0155 ± 0.013 | -0.193 ± 0.026 | -0.01 ± 0.0085 | -0.0325 ± 0.0078 | -0.0735 ± 0.012 | -0.139 ± 0.036 | -0.0085 ± 0.028 | -0.012 ± 0.0099 | -0.0205 ± 0.013 | -0.012 ± 0.035 | -0.0185 ± 0.032 | -0.0075 ± 0.035
17 | KF3CT:PAI-I | -0.0055 ± 0.04 | -0.0275 ± 0.028 | -0.036 ± 0.014 | -0.116 ± 0.0057 | -0.2505 ± 0.0021 | -0.0085 ± 0.046 | -0.021 ± 0.013 | -0.0415 ± 0.0035 | -0.0715 ± 0.028 | -0.0145 ± 0.00071 | -0.0115 ± 0.018 | -0.014 ± 0.0085 | -0.0005 ± 0.018 | -0.008 ± 0.0057 | 0.0025 ± 0.012
18 | KF3CT:SRB | 0.0015 ± 0.0064 | 0.005 ± 0.0057 | -0.0095 ± 0.011 | -0.0315 ± 0.0078 | -0.026 ± 0.0028 | 0.006 ± 0.011 | 0 ± 0.0042 | -0.003 ± 0.0028 | 0.0095 ± 0.016 | -0.001 ± 0.0085 | 0.001 ± 0.0028 | -0.001 ± 0.0057 | 0.0025 ± 0.0021 | 0.0015 ± 0.005 | 0.0045 ± 0.00071
19 | KF3CT:TIMP-2 | -0.009 ± 0.021 | -0.0225 ± 0.00071 | -0.031 ± 0.0071 | -0.0235 ± 0.018 | -0.017 ± 0.051 | -0.0205 ± 0.056 | -0.015 | 0.044 ± 0.02 | 0.005 ± 0.034 | 0.039 ± 0.0042 | -0.006 ± 0.016 | 0.0365 ± 0.06 | -0.016 ± 0.016 | -0.0245 ± 0.022 | -0.019 ± 0.038
